Data published in paper PMC10582335 (Frontiers in Pharmacology, 2023).

Tested on: Abcb1a mRNA (P-gp)
Assay: qRT-PCR of mRNA expression in rat tissues after multiple-dose almonertinib
Format: in vivo
Conditions: rats given almonertinib for nine consecutive days, n = 3
Protocol: Sixty healthy rats were randomly divided into ten groups (n = 6). […] Blood samples were centrifuged at 3,500 g for 10 min, and then the supernatant was gathered and stored in a -80°C refrigerator. After, rat intestine, kidney and liver tissues were harvested for molecular analysis on the ninth or fifth day after treatment with the corresponding drugs for each group. The tissues were placed immediately at -80°C. qRT-PCR analysis was used to determine mRNA levels of Abcb1a, Abcg2 and Cyp3a1 in the liver and intestines, and Abcb1a and Abcg2 in the kidney of rats. Total RNA was isolated from frozen liver, intestine and kidney samples using TRNzol Universal according to the manufacturer's instructions. A Bio Tek Epoch (Bio Tek Instruments, Inc., Winooski, VT, United States) was employed to quantify the purity and concentration of the total RNA based on the ratio of the absorbance between 260 and 280 nm. RNA samples of 1 μg were transformed to complementary DNA (cDNA) using the […] Kit. The real-time PCR assays were accomplished using a two-step amplification method based on the recommendations in a SLAN-96S Real-Time PCR system (Shanghai Hongshi Medical Technology Co., Ltd. Shanghai, China). […] was used as an internal control, and the PCR cycling criteria were as follows: 95°C for 15 min, then 40 cycles of 95°C for 10, and 60°C for 32 s.

C=CC(=O)Nc1cc(Nc2nccc(-c3cn(C4CC4)c4ccccc34)n2)c(OC)cc1N(C)CCN(C)C [almonertinib, Almonertinib]
inhibition of mRNA expression of Abcb1a (intestine): 51.3%
inhibition of mRNA expression of Abcb1a (kidney): 42.9%
